Experimental data as given in US7056940B2, “Insecticidal 3-(2,6-disubstituted phenyl)-5-[5-arylthien-2-yl]-1,2,4-triazoles” (Dow AgroSciences LLC, priority 2001, dated 2006).

Experiments:
Type in all cases: in vivo
[1] = system: Cotton Aphid (Aphis gossypii); assay: Insecticidal test for cotton aphid, spray on infested squash cotyledons; conditions: 50 ppm spray, 3 days
Procedure: Insecticidal Test for Cotton Aphid (Aphis gossypii)
To prepare spray solutions, 1 mg of each test compound was dissolved into 1 mL of a 90:10 acetone:ethanol solvent. This 1 mL of chemical solution was added to 19 mL of water containing 0.05% Tween 20 surfactant to produce a 50 ppm spray solution.
Squash cotyledons were infested with cotton aphid (all life stages) 16–20 hours prior to application of spray solution. The solution was sprayed on both sides of each infested squash cotyledon (0.5 mL×2 each side) with a sweeping action until runoff. The plants were allowed to air dry and held for 3 days in a controlled room at 26° C. and 40% RH after which time the test was graded. Grading was by actual count using a dissecting microscope and comparison of test counts to the untreated check. Results are given in Tables 1–4 as percent control based on population reduction versus the untreated.

[2] = system: Beet Armyworm (Spodoptera exigua); assay: Insecticidal test for beet armyworm, treated lepidopteran diet; parameters: key: A: 90–100; B: 80–89; C: 70–79; D: 60–69; E: 50–59; F: less than 50; G: Inactive; conditions: on diet surface, second-instar larvae, 5 days
From the text: (§1) The compounds are useful for reducing populations of insects and mites and are useful in a method of inhibiting an insect or mite population which comprises applying to a locus of the insect or mite an effective insect- or mite-inactivating amount of a compound of formula (1). The “locus” of insects or mites is a term used herein to refer to the environment in which the insects or mites live or where their eggs are present, including the air surrounding them, the food they eat, or objects which they contact. For example, insects or mites which eat or contact edible or ornamental plants can be controlled by applying the active compound to plant parts such as the seed, seedling, or cutting which is planted, the leaves, stems, fruits, grain, or roots, or to the soil in which the roots are growing. It is contemplated that the compounds might also be useful to protect textiles, paper, stored grain, seeds, domesticated animals, buildings or human beings by applying an active compound to or near such objects. The term “inhibiting an insect or mite” refers to a decrease in the numbers of living insects or mites, or a decrease in the number of viable insect or mite eggs. The extent of reduction accomplished by a compound depends, of course, upon the application rate of the compound, the particular compound used, and the target insect or mite species. At least an inactivating amount should be used. The terms “insect-inactivating amount” and “mite-inactivating amount” are used to describe the amount, which is sufficient to cause a measurable reduction in the treated insect or mite population. Generally an amount in the range from about 1 to about 1000 ppm by weight active compound is used. For example, insects and mites which can be inhibited include, but are not limited to: • Lepidoptera—Heliothis spp., Helicoverpa spp., Spodoptera spp., Mythimna unipuncta, Agrotis ipsilon, Earias spp., Euxoa auxiliaris, Trichoplusia ni, Anticarsia gemmatalis, Rachiplusia nu, Plutella xylostella, Chilo spp., Scirpophaga incertulas, Sesamia inferens, Cnaphalocrocis medinalis, Ostrinia nubilalis, Cydia pomonella, Carposina niponensis, Adoxophyes orana, Archips argyrospilus, Pandemis heparana, Epinotia aporema, Eupoecilia ambiguella, Lobesia botrana, Polychrosis viteana, Pectinophora gossypiella, Pieris rapae, Phyllonorycter spp., Leucoptera malifoliella, Phyllocnisitis citrella • Coleoptera—Diabrotica spp., Leptinotarsa decemlineata, Oulema oryzae, Anthonomus grandis, Lissorhoptrus oryzophilus, Agriotes spp., Melanotus communis, Popillia japonica, Cyclocephala spp., Tribolium spp. • Homoptera—Aphis spp., Myzus persicae, Rhopalosiphum spp., Dysaphis plantaginea, Toxoptera spp., Macrosiphum euphorbiae, Aulacorthum solani, Sitobion avenae, Metopolophium dirhodum, Schizaphis graminum, Brachycolus noxius, Nephotettix spp., Nilaparvata lugens, Sogatella furcifera, Laodelphax striatellus, Bemisia tabaci, Trialeurodes vaporariorum, Aleurodes proletella, Aleurothrixus floccosus, Quadraspidiotus perniciosus, Unaspis yanonensis, Ceroplastes rubens, Aonidiella aurantii • Hemiptera—Lygus spp., Eurygaster maura, Nezara viridula, Piezodorus guildingi, Leptocorisa varicornis • Thysanoptera—Frankliniella occidentalis, Thrips spp., Scirtothrips dorsalis • Isoptera—Reticulitermes flavipes, Coptotermes formosanus • Orthoptera—Blattella germanica, Blatta orientalis, Gryllotalpa spp. • Diptera—Liriomyza spp., Musca domestica, Aedes spp., Culex spp., Anopheles spp. • Hymenoptera—Iridomyrmex humilis, Solenopsis spp., Monomorium pharaonis, Atta spp., Pogonomyrmex spp., Camponotus spp. • Siphonaptera—Ctenophalides spp., Pulex irritans • Acarina—Tetranychus spp., Panonychus spp., Eotetranychus carpini, Phyllocoptruta oleivora, Aculus pelekassi, Brevipalpus phoenicis, Boophilus spp., Dermacentor variabilis, Rhipicephalus sanguineus, Amblyomma americanum, Ixodes spp., Notoedres cati, Sarcoptes scabiei, Dermatophagoides spp. […]

[3] = system: Sweetpotato Whitefly (Bemisia tabacia); assay: Insecticidal test for sweetpotato whitefly, spray on cotton plants; parameters: key: A: 90–100; B: 80–89; C: 70–79; D: 60–69; E: 50–59; F: less than 50; G: Inactive; conditions: 200 ppm spray, 13 days, large nymphs
Procedure: Insecticidal Test for Sweetpotato Whitefly (Bemisia tabacia)
Four mg of each test compound was dissolved by adding 4 mL of a 90:10 acetone:ethanol solvent mixture to the vial containing the sample compound. This solution was added to 16 mL of water containing 0.05% Tween 20 surfactant to produce 20 mL of an 200 ppm spray solution.
Five-week-old cotton plants reared in a greenhouse were stripped of all foliage except for the two uppermost true leaves that were greater than 5 cm in diameter. These plants were then placed into a laboratory colony of whiteflies for two days for oviposition by the colony females. All whiteflies were then removed from the test plants with pressurized air. The spray solution was then applied to the test plants with a hand-held syringe fitted with hollow cone nozzle. One mL spray solution was applied to each leaf top and bottom for a total of 4 mL per plant. Four replications of each test compound utilized a total of 16 mL spray solution. Plants were air dried and then placed in a holding chamber (28° C. and 60% RH) for 13 days. Compound efficacy was evaluated by counting, under an illuminated magnifying glass, the number of large nymphs (3rd–4th instar) per leaf.
Percent control based on reduction of large nymphs of a test compound compared to solution-only (no test compound) sprayed plants is reported in Tables 1–4.

[4] = system: Two-spotted Spider Mite (Tetranychus urticae); assay: Insecticidal test for two-spotted spider mite, ovicide method; parameters: key: A: 90–100; B: 80–89; C: 70–79; D: 60–69; E: 50–59; F: less than 50; G: Inactive; conditions: cotton leaf discs, 6 days
Procedure: Insecticidal Test for Two-spotted Spider Mite (Tetranychus urticae)
Ten adult female two-spotted spider mites were placed on eight 2.2 cm leaf discs of cotton leaf, allowed to oviposit over 24 hours, and thereafter removed. […] Discs were placed on an agar substrate and held at 24° C. and 90% RH for 6 days.

[5] = system: Tobacco Budworm (Heliothis virescens); assay: Insecticidal test for tobacco budworm, treated cotton cotyledon leaf disc; parameters: key: A: 90–100; B: 80–89; C: 70–79; D: 60–69; E: 50–59; F: less than 50; G: Inactive; conditions: cotton cotyledon leaf-dip, 2nd instar larvae, 5 days
From the text: as §1

[6] = system: Cabbage Looper (Trichoplusia ni); assay: Insecticidal test for cabbage looper, treated cabbage leaf disc; parameters: key: A: 90–100; B: 80–89; C: 70–79; D: 60–69; E: 50–59; F: less than 50; G: Inactive; conditions: cabbage leaf-dip, 2nd instar larvae, 5 days
From the text: as §1

Row | Structure (SMILES) | CA: activity at 50 ppm against cotton aphid (% control rating) [1] | BAW: activity at 400 ppm against beet armyworm (% control rating) [2] | WF: activity at 200 ppm against whitefly (% control rating) [3] | SM: activity against two-spotted spider mite (% control rating) [4] | TBW: activity at 400 ppm against tobacco budworm (% control rating) [5] | CL: activity at 400 ppm against cabbage looper (% control rating) [6]
1 | CSc1ccc(-c2scc(-c3nc(-c4c(F)cccc4Cl)nn3C)c2C)cc1 | B (80–89) | D (60–69) | G | E (50–59) | G | G
2 | Cc1c(-c2nc(-c3c(F)cccc3Cl)nn2C)csc1-c1cccc(OC(F)(F)F)c1 | A (90–100) | G | B (80–89) | F (less than 50) | G | A (90–100)
3 | Cc1c(-c2nc(-c3c(F)cccc3Cl)nn2C)csc1-c1ccc(Oc2ccccc2)cc1 | A (90–100) | A (90–100) | A (90–100) | A (90–100) | F (less than 50) | A (90–100)
4 | CCCOc1ccc(-c2scc(-c3nc(-c4c(F)cccc4Cl)nn3C)c2C)cc1 | A (90–100) | A (90–100) | A (90–100) | G | G | A (90–100)
5 | Cc1c(-c2nc(-c3c(F)cccc3Cl)nn2C)csc1-c1ccc(OCC(F)(F)F)cc1 | B (80–89) | A (90–100) | A (90–100) | A (90–100) | A (90–100) | A (90–100)
6 | Cc1c(-c2nc(-c3c(F)cccc3Cl)nn2C)csc1-c1cc(C(F)(F)F)ccc1F | B (80–89) | G | F (less than 50) | F (less than 50) | G | A (90–100)
7 | Cc1sc(-c2cc(C(F)(F)F)ccc2F)cc1-c1nc(-c2c(F)cccc2Cl)nn1C | D (60–69) | G | G | G | F (less than 50) | G
8 | Cc1c(-c2nc(-c3c(F)cccc3Cl)nn2C)csc1-c1ccc(OC(F)(F)C(F)Br)cc1 (stereo not drawn) | A (90–100) | A (90–100) | A (90–100) | A (90–100) | A (90–100) | A (90–100)
9 | Cc1c(-c2nc(-c3c(F)cccc3F)nn2C)csc1-c1ccc(C(F)(F)F)cc1Cl | E (50–59) | G | G | G | G | A (90–100)
10 | Cc1c(-c2nc(-c3c(F)cccc3Cl)nn2C)csc1-c1ccc(OC(F)(F)F)cc1F | B (80–89) | A (90–100) | A (90–100) | F (less than 50) | A (90–100) | A (90–100)
11 | Cc1c(-c2nc(-c3c(F)cccc3Cl)nn2C)csc1-c1ccc(OC2CCCCO2)cc1 (stereo not drawn) | B (80–89) | A (90–100) | F (less than 50) | F (less than 50) | F (less than 50) | F (less than 50)
12 | Cc1c(-c2nc(-c3c(F)cccc3Cl)nn2C)csc1-c1ccc(OC(F)(F)C(F)F)cc1 | C (70–79) | A (90–100) | A (90–100) | E (50–59) | A (90–100) | A (90–100)
13 | Cc1sc(-c2ccc(OC(F)(F)C(F)C(F)(F)F)cc2)c(C)c1-c1nc(-c2c(F)cccc2Cl)nn1C (stereo not drawn) | E (50–59) | A (90–100) | G | G | A (90–100) | A (90–100)
